Measurements: the NIST ThermoML archive (doi:10.1016/j.jct.2018.02.014)
± gives the expanded uncertainty stated by the source.

Assay: activity coefficient (dimensionless); of the first substance listed, at infinite dilution; xn = mol fraction of the nth substance listed
Conditions: 101.33 kPa, Liquid, Chromatography, x1 = 0

Structure (SMILES)	activity coefficient (318.15 K)	activity coefficient (328.15 K)	activity coefficient (338.15 K)	activity coefficient (348.15 K)	activity coefficient (358.15 K)	activity coefficient (368.15 K)	activity coefficient (298.15 K)	activity coefficient (308.15 K)
Cc1ccccc1C [1,2-dimethylbenzene] + CC[N+]1(C)CCOCC1.N#CN=C=[N-]	10.8 ± 0.7	11.1 ± 0.8	11.4 ± 0.8	11.7 ± 0.8	12 ± 0.8	12.4 ± 0.8	–	–
Cc1cccc(C)c1 [1,3-dimethylbenzene] + CC[N+]1(C)CCOCC1.N#CN=C=[N-]	13.8 ± 0.9	14.1 ± 1	14.4 ± 1	14.7 ± 1	14.9 ± 1	15.2 ± 1	–	–
Cc1ccc(C)cc1 [1,4-dimethylbenzene] + CC[N+]1(C)CCOCC1.N#CN=C=[N-]	13.4 ± 0.9	13.7 ± 0.9	14 ± 1	14.3 ± 1	14.6 ± 1	14.9 ± 1	–	–
C1COCCO1 [1,4-dioxane] + CC[N+]1(C)CCOCC1.N#CN=C=[N-]	1.57 ± 0.1	1.69 ± 0.11	1.82 ± 0.12	1.94 ± 0.13	2.06 ± 0.14	2.19 ± 0.15	–	–
C=CCCCCCCCC [1-decene] + CC[N+]1(C)CCOCC1.N#CN=C=[N-]	1200 ± 83	1070 ± 74	960 ± 66	865 ± 60	785 ± 54	718 ± 49	–	–
C=CCCCCC [1-heptene] + CC[N+]1(C)CCOCC1.N#CN=C=[N-]	288 ± 20	268 ± 18	251 ± 17	236 ± 16	222 ± 15	210 ± 14	–	–
C#CCCCCC [1-heptyne] + CC[N+]1(C)CCOCC1.N#CN=C=[N-]	44.9 ± 3.1	46.3 ± 3.2	47.6 ± 3.3	49 ± 3.4	50.3 ± 3.4	51.6 ± 3.5	–	–
C#CCCCC [1-hexyne] + CC[N+]1(C)CCOCC1.N#CN=C=[N-]	24.8 ± 1.7	25.6 ± 1.8	26.4 ± 1.8	27.4 ± 1.9	28.1 ± 1.9	28.9 ± 2	–	–
CCC[N+](=O)[O-] [1-nitropropane] + CC[N+]1(C)CCOCC1.N#CN=C=[N-]	2.29 ± 0.16	2.39 ± 0.16	2.49 ± 0.17	2.59 ± 0.18	2.68 ± 0.18	2.78 ± 0.19	–	–
C#CCCCCCC [1-octyne] + CC[N+]1(C)CCOCC1.N#CN=C=[N-]	84.2 ± 5.8	84.6 ± 5.8	84.9 ± 5.8	85.6 ± 5.9	86.1 ± 5.9	86.8 ± 5.9	–	–
C#CCCC [1-pentyne] + CC[N+]1(C)CCOCC1.N#CN=C=[N-]	14.3 ± 1	14.8 ± 1	15.4 ± 1.1	15.9 ± 1.1	16.5 ± 1.1	17 ± 1.2	–	–
CC(C)CC(C)(C)C [2,2,4-trimethylpentane] + CC[N+]1(C)CCOCC1.N#CN=C=[N-]	951 ± 66	853 ± 59	768 ± 53	–	–	–	1220 ± 84	1070 ± 74
CCOC(C)(C)C [2-ethoxy-2-methylpropane] + CC[N+]1(C)CCOCC1.N#CN=C=[N-]	–	105 ± 7	108 ± 7	111 ± 8	113 ± 8	116 ± 8	–	–
CCC(C)(C)OC [2-methoxy-2-methylbutane] + CC[N+]1(C)CCOCC1.N#CN=C=[N-]	–	55.7 ± 3.8	57.9 ± 4	60 ± 4.1	62.2 ± 4.3	64.3 ± 4.4	–	–
COC(C)(C)C [2-methoxy-2-methylpropane] + CC[N+]1(C)CCOCC1.N#CN=C=[N-]	–	33.1 ± 2.3	34.4 ± 2.4	35.6 ± 2.4	36.8 ± 2.5	38 ± 2.6	–	–
CC(C)CO [2-methyl-1-propanol] + CC[N+]1(C)CCOCC1.N#CN=C=[N-]	3.01 ± 0.2	2.93 ± 0.2	2.86 ± 0.19	2.79 ± 0.19	2.73 ± 0.19	2.67 ± 0.18	–	–
CC(C)(C)O [2-methylpropan-2-ol] + CC[N+]1(C)CCOCC1.N#CN=C=[N-]	2.77 ± 0.19	2.78 ± 0.19	2.8 ± 0.19	2.82 ± 0.19	2.83 ± 0.19	2.85 ± 0.19	–	–
C=C(C)c1ccccc1 [(1-methylethenyl)benzene] + CC[N+]1(C)CCOCC1.N#CN=C=[N-]	10.5 ± 0.7	11.1 ± 0.8	11.6 ± 0.8	12.1 ± 0.8	12.6 ± 0.9	13.1 ± 0.9	–	–
CC(C)=O [acetone] + CC[N+]1(C)CCOCC1.N#CN=C=[N-]	1.61 ± 0.11	1.7 ± 0.11	1.8 ± 0.12	1.9 ± 0.13	1.99 ± 0.14	2.09 ± 0.14	–	–
CC#N [acetonitrile] + CC[N+]1(C)CCOCC1.N#CN=C=[N-]	0.966 ± 0.061	1.01 ± 0.06	1.06 ± 0.07	1.11 ± 0.07	1.16 ± 0.07	1.21 ± 0.08	–	–
c1ccccc1 [benzene] + CC[N+]1(C)CCOCC1.N#CN=C=[N-]	4.46 ± 0.3	4.62 ± 0.31	4.76 ± 0.32	4.91 ± 0.33	5.05 ± 0.34	5.2 ± 0.35	–	–
CCCCO [butan-1-ol] + CC[N+]1(C)CCOCC1.N#CN=C=[N-]	3.08 ± 0.21	3.02 ± 0.21	2.98 ± 0.2	2.94 ± 0.2	2.9 ± 0.2	2.86 ± 0.19	–	–
CCC(C)O (configuration not stated) [butan-2-ol] + CC[N+]1(C)CCOCC1.N#CN=C=[N-]	2.98 ± 0.2	2.94 ± 0.2	2.9 ± 0.2	2.86 ± 0.19	2.83 ± 0.19	2.81 ± 0.19	–	–
CCCC=O [butanal] + CC[N+]1(C)CCOCC1.N#CN=C=[N-]	3.51 ± 0.24	3.65 ± 0.25	3.79 ± 0.26	3.92 ± 0.27	4.04 ± 0.28	4.17 ± 0.28	–	–
C1CCCCCC1 [cycloheptane] + CC[N+]1(C)CCOCC1.N#CN=C=[N-]	215 ± 15	202 ± 14	189 ± 13	179 ± 12	169 ± 12	161 ± 11	–	–
C1CCCCC1 [cyclohexane] + CC[N+]1(C)CCOCC1.N#CN=C=[N-]	168 ± 12	152 ± 10	138 ± 9	126 ± 9	115 ± 8	106 ± 7	–	–
C1=CCCCC1 [cyclohexene] + CC[N+]1(C)CCOCC1.N#CN=C=[N-]	50.7 ± 3.5	50 ± 3.4	49.4 ± 3.4	–	–	–	–	–
C1CCCCCCC1 [cyclooctane] + CC[N+]1(C)CCOCC1.N#CN=C=[N-]	313 ± 22	293 ± 20	273 ± 19	257 ± 18	242 ± 17	229 ± 16	–	–
CCCCCCCCCC [decane] + CC[N+]1(C)CCOCC1.N#CN=C=[N-]	2230 ± 150	2030 ± 140	1880 ± 130	1740 ± 120	1610 ± 110	1500 ± 100	–	–
